Assay results: ChEMBL document CHEMBL1201862, “PubChem BioAssay data set” (2004)
Active and inactive are the calls of the source.

Assays:
[1] = target: T1, Leucine aminopeptidase (Plasmodium falciparum 3D7, UniProt Q8IL11); assay: P. falciparum M17LAP inhibitors, primary screen, biochemical, fluorogenic H-Leu-NHMec substrate, 1536-well (AID 1619); format: functional
T1 sequence (Q8IL11 whole entry): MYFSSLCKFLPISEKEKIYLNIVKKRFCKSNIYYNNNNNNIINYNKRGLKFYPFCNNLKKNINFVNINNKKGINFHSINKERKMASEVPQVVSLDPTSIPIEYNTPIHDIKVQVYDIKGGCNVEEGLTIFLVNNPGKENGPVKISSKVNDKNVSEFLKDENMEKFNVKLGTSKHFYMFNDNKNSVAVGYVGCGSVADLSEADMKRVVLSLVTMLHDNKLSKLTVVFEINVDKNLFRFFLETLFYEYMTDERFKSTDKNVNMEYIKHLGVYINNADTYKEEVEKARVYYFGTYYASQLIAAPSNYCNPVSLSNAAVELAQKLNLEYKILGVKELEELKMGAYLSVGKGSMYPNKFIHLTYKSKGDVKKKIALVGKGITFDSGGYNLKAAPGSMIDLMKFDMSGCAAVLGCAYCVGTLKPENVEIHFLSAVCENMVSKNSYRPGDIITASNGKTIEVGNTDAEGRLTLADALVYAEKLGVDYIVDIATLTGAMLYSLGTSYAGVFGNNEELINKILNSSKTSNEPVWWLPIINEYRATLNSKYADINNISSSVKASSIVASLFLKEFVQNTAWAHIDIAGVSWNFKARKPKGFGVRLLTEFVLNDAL

[2] = target: T2, Aspartyl aminopeptidase (Plasmodium falciparum 3D7, UniProt Q8I2J3); assay: Counterscreen for inhibitors of M1 and M17 aminopeptidases: QFRET-based biochemical high throughput dose response assay for inhibitors of the Plasmodium falciparum M18 Aspartyl Aminopeptidase (PFM18AAP). [Related PubChem assays: 1619 (Screening assay (M17LAP inhibitors).), 1445 (Screening assay (M1AAP inhibitors).)]
T2 sequence (Q8I2J3 whole entry): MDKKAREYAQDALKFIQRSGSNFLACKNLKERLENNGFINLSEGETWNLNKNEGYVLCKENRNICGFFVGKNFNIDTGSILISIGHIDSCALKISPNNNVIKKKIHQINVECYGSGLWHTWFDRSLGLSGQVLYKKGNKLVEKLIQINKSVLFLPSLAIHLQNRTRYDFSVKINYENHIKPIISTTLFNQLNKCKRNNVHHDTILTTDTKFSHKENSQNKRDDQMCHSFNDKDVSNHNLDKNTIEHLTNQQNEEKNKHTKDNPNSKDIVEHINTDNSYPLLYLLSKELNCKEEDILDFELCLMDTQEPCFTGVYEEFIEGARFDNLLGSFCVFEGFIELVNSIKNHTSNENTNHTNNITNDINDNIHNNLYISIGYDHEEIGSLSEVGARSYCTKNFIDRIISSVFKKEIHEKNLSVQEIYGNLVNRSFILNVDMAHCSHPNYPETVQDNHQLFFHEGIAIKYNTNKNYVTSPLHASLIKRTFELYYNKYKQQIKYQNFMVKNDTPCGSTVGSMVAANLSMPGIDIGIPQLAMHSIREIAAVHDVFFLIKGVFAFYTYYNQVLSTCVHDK

[3] = target: Procathepsin L (Homo sapiens, UniProt P07711); assay: cathepsin L inhibitors, dose response, counter-screen for M1/M17 aminopeptidase inhibitor project, biochemical, QFRET, 1536-well (AID 2214)
Procathepsin L, sequence (P07711 whole entry): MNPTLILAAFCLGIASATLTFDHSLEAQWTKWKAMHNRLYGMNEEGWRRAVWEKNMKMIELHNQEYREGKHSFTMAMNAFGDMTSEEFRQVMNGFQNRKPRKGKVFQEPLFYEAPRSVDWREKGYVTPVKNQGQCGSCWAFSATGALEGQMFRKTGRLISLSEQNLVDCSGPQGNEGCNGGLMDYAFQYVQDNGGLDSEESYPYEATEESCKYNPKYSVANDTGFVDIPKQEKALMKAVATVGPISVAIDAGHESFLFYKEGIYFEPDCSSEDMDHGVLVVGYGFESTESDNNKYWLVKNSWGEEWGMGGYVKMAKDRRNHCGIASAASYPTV

[4] = target: Cytochrome P450 2C19 (Homo sapiens, UniProt P33261); assay: Cytochrome panel assay with activity outcomes. Panel member name: p450-cyp2c19 Compounds with AC50 equal or less than 10 uM are considered active; format: functional; settings: read-out: AC50
Cytochrome P450 2C19, sequence (P33261 whole entry): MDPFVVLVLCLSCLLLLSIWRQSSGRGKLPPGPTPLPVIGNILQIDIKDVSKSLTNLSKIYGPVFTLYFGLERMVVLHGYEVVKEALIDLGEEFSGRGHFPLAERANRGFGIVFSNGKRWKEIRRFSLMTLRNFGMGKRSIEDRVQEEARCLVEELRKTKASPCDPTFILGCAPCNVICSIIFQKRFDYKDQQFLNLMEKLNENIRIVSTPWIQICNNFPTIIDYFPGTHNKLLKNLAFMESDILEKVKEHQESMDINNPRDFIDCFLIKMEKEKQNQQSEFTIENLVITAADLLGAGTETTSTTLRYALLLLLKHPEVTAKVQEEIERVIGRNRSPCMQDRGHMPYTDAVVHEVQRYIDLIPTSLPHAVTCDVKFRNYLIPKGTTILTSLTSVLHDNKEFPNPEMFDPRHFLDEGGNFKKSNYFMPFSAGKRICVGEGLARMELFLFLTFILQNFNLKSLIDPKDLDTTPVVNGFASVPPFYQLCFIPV

[5] = target: Cytochrome P450 2C9 (Homo sapiens, UniProt P11712)
Cytochrome P450 2C9, sequence (P11712 whole entry): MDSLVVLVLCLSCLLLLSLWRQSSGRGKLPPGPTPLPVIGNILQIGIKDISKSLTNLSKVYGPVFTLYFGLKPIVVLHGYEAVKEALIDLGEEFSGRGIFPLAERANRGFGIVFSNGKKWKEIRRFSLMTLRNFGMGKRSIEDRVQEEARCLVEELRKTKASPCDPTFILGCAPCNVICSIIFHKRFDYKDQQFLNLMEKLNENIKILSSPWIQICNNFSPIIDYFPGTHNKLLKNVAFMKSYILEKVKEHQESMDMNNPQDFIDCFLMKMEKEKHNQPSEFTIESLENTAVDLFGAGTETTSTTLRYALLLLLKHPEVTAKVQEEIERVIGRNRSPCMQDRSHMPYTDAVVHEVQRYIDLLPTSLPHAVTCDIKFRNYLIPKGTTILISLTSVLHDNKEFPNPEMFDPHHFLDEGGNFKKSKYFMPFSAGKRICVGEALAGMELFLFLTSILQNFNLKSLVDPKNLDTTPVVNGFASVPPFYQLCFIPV

[6] = target: T3, Mannose-6-phosphate isomerase (Homo sapiens, UniProt P34949); assay: inhibitors of human PMI, primary screen, biochemical, fluorescence intensity, coupled assay (AID 1209)
T3 sequence (P34949 whole entry): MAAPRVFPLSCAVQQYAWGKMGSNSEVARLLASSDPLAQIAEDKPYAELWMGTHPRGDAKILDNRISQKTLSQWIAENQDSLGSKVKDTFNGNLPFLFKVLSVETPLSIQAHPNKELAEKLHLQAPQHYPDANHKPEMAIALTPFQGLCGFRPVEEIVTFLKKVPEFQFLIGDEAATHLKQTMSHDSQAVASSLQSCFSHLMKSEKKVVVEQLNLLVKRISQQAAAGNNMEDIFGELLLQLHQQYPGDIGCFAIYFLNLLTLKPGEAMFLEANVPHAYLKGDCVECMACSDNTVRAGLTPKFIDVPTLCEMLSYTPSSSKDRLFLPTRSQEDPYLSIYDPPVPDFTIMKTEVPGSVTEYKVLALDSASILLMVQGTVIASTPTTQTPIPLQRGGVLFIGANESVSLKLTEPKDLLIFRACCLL

[7] = target: T3, Mannose-6-phosphate isomerase; assay: PMI enzyme inhibitors, confirmation, biochemical, fluorescence intensity (AID 1535)
[8] = target: Phosphomannomutase 2 (Homo sapiens, UniProt O15305); assay: Counter screen SAR assay for PMM2 inhibitors via a fluorescence intensity assay. [Related pubchem assays (depositor defined):AID1545, AID1574]
Phosphomannomutase 2, sequence (O15305 whole entry): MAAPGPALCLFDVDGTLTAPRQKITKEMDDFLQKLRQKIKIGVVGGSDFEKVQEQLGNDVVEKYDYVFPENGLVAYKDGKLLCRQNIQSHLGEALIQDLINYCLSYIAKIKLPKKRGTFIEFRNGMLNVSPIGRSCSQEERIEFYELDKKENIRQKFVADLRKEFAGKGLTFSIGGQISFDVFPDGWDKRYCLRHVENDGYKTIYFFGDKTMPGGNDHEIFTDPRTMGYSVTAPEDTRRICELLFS

[9] = target: T4, Mitochondrial peptide methionine sulfoxide reductase (Bos taurus, UniProt P54149); assay: Absorbance-based biochemical high throughput dose response assay for activators of Methionine sulfoxide reductase A (MsrA).; format: functional
T4 sequence (P54149 whole entry): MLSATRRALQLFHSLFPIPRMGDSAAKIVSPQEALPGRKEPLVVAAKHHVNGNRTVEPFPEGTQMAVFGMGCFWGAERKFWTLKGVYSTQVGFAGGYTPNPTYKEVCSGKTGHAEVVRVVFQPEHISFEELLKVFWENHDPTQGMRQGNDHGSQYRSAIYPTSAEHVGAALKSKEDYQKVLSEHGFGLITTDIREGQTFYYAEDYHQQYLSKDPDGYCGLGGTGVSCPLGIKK

[10] = target: NS3 (Hepatitis C virus, UniProt A3EZJ3); assay: PubChem AID 2173; set-up: species or system Hepacivirus hominis
NS3, sequence (A3EZJ3 whole entry): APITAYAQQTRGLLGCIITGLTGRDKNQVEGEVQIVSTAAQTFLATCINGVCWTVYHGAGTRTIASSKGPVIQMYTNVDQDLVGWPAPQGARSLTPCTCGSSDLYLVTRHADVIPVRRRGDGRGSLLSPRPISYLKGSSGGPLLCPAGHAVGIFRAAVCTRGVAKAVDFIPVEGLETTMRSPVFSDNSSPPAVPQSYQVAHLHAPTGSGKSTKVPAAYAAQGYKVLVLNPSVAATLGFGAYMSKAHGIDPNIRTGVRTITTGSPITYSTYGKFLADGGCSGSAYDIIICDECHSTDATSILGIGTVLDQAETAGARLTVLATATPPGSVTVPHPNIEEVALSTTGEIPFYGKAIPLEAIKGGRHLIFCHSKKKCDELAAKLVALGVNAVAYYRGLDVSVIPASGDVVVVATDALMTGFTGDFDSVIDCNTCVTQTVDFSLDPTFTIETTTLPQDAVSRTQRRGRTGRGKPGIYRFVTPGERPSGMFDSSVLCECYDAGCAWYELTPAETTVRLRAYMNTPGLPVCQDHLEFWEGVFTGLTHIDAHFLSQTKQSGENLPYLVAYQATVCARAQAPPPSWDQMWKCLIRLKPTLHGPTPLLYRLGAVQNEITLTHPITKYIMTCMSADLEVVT

[11] = Luminescence Cell-Based/Microorganism Confirmation at Dose of Inhibitors of Trypanosoma cruzi Infection. [Related pubchem assays: 1885, 1968 ]; format: functional
[12] = inhibitors of intracellular T. cruzi replication, confirmation, NIH3T3 host cells, beta-gal luminescence (AID 2044); format: functional, cell-based;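 also: intracellular parasites grown in NIH/3T3 mouse fibroblasts as host cells; luminescent beta-galactosidase reporter signal from transgenic T. cruzi replicating inside host cells; inhibitors lower the luminescence signal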
[13] = Luminescence Cell-Based Secondary HTS screen to identify cytotoxic compounds of NIH3T3 cells. [Related pubchem assays: 1885, 1968 ]; format: functional
[14] = cytotoxicity toward NIH3T3 fibroblasts, dose response, counter-screen, cell-based, ATP luminescence, mouse fibroblasts (AID 2010); format: functional;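 also: cells exposed to compound for about 90 hours before reading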
[15] = target: T5, Short transient receptor potential channel 4 (Mus musculus, UniProt Q9QUQ5); assay: mouse TRPC4 channel inhibitors, dose response, cell-based, HEK293 TRPC4/mu-opioid, Fluo-4 calcium (AID 434942); format: functional;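 also: potency of inhibitors blocking the TRPC4 calcium response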
T5 sequence (Q9QUQ5 whole entry): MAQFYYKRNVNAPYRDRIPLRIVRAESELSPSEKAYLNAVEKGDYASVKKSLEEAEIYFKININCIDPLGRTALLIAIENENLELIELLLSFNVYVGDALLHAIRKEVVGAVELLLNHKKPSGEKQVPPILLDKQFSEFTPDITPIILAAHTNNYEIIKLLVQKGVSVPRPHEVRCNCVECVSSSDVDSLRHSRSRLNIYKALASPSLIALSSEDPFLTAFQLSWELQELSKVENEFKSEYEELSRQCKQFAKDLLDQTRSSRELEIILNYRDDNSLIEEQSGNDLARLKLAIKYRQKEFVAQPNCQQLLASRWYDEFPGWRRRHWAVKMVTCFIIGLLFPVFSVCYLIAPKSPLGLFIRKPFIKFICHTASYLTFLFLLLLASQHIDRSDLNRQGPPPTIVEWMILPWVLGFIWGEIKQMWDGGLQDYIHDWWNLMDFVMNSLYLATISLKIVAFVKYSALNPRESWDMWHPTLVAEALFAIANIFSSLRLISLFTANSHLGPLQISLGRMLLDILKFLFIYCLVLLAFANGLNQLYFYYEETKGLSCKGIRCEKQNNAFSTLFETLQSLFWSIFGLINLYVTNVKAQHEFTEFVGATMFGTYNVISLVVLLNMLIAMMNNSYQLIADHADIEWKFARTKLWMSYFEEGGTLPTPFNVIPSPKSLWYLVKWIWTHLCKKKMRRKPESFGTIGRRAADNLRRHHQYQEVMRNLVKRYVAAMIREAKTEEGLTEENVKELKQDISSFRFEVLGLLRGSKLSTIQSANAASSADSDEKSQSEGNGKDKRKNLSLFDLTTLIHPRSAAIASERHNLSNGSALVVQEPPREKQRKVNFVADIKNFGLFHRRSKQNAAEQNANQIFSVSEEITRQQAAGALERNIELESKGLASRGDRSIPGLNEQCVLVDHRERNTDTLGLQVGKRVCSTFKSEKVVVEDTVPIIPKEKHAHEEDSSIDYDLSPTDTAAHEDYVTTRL

[16] = cells
[17] = inhibitors of Bluetongue virus cytopathic effect, confirmation, arbovirus, BSR cells (AID 1250); format: functional;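 also: protection from viral cytopathic effect measured as cell viability by ATP luminescence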
[18] = M. tuberculosis H37Rv growth inhibitors, H37Rv strain (AID 1626); format: functional
[19] = A High Throughput Confirmatory Assay used to Identify Novel Compounds that Inhibit Mycobacterium Tuberculosis in the absence of Glycerol.; format: functional
[20] = target: Melanocortin receptor 4 (Homo sapiens, UniProt P32245); assay: MC4R antagonist potency on cAMP, dose response, cell-based, TR-FRET, biased antagonists (AID 602298); format: functional;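 also: antagonist potency against agonist-stimulated cAMP production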
Melanocortin receptor 4, sequence (P32245 whole entry): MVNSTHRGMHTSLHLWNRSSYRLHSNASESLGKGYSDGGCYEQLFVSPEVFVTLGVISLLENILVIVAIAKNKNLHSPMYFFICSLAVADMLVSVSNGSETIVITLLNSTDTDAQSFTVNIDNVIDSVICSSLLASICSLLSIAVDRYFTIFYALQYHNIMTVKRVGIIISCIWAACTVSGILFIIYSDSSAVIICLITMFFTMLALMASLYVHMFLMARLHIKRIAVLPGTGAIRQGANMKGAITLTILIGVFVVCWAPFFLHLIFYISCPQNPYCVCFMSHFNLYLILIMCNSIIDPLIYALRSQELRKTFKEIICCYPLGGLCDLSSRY

[21] = nonselective inhibitors of cellular cAMP signaling, dose response, counter-screen for MC4R biased antagonist project, cell-based, TR-FRET cAMP detection (AID 602305); format: functional;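 also: U2OS cells stimulated with forskolin near its EC80 as the cAMP inducer; potency is for inhibition of forskolin-stimulated cAMP signaling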
[22] = target: T6, Bcl-2-like protein 10 (Homo sapiens, UniProt Q9HD36); assay: Biochemical TR3 FP assay of Bcl-B inhibitor potency, EC50 (AID 1243); format: functional
T6 sequence (Q9HD36 whole entry): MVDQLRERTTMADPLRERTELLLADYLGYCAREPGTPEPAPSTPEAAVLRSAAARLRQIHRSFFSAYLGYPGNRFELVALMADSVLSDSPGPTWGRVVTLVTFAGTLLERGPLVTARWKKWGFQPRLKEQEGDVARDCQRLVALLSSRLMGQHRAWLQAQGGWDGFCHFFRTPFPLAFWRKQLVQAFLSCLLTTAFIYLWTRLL

[23] = target: G2/mitotic-specific cyclin-B1 (Homo sapiens, UniProt P14635); assay: Counterscreen assay for inhibitors of Wee1 degradation: dose response cell-based assay to identify inhibitors of cyclin B degradation. [Related pubchem assays: 1410, 1321 ]; format: functional
G2/mitotic-specific cyclin-B1, sequence (P14635 whole entry): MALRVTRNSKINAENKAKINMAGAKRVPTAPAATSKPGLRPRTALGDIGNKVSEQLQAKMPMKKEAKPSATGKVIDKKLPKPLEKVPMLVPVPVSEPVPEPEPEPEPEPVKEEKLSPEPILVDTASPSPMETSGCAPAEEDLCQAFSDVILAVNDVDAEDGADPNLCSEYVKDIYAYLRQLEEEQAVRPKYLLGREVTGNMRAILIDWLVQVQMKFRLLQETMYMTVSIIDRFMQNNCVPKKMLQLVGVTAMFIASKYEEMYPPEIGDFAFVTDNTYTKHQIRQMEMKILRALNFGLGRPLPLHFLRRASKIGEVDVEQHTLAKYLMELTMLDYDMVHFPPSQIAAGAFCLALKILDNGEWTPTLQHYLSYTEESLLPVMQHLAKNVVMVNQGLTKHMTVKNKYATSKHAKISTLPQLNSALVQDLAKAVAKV

[24] = Luminescence Cell-Based Dose Confirmation HTS to Identify Activators of 5'UTR Stem-Loop Driven Alpha-Synuclein mRNA Translation in H4 Neuroglioblastoma Cells. [Related pubchem assays: 1829 (Project Summary), 1814 (Primary HTS)]; format: functional
[25] = Luminescence Cell-Based Dose Response HTS to Identify Activators of Luciferase Translation or Activity in H4 […] Cells. [Related pubchem assays: 1829 (Project Summary), 1814 (Primary HTS)]; format: functional
[26] = target: Wee1-like protein kinase (Homo sapiens, UniProt P30291); assay: Dose Response Cell-based Assay for Inhibitors of Wee1 Degradation. [Related pubchem assays: 1410, 1321 ]; format: functional
Wee1-like protein kinase, sequence (P30291 whole entry): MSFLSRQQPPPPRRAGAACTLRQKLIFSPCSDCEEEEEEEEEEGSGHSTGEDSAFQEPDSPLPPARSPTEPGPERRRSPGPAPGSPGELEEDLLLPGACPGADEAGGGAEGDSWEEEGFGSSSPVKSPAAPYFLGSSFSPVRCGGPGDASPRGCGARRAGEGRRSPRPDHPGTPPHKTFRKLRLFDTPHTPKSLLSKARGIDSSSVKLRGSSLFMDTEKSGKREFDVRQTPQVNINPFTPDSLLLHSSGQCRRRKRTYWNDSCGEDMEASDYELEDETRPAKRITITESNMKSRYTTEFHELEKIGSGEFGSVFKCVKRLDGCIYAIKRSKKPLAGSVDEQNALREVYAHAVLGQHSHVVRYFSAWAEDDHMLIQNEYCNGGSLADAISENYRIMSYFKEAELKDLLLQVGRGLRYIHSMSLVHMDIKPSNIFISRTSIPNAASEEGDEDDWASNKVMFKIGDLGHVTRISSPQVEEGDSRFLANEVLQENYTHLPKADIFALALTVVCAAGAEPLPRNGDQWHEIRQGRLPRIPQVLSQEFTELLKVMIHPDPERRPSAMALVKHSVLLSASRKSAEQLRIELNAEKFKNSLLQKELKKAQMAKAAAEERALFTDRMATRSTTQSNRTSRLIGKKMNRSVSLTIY

[27] = test system: H4; assay: Luminescence Cell-Based Dose Response HTS to Identify Activators of 5'UTR Stem-Loop Driven Prion Protein mRNA Translation in H4 Neuroglioblastoma Cells. [Related pubchem assays: 1829 (Project Summary), 1814 (Primary HTS)]; format: functional; settings: Homo sapiens
[28] = target: T4, Mitochondrial peptide methionine sulfoxide reductase; format: functional

COc1ccc(NC(=O)CSC2=NC(=O)CC(C)=N2)cc1
IC50 [1]: 3.09 µM (active) | IC50 [2]: > 73.5 µM (not active) | IC50 [3]: > 59.6 µM (not active) | AC50 [4]: 15.8 µM (inconclusive) | AC50 [5]: 25.1 µM (inconclusive)

Sc1n[nH]c(-c2cccc(Br)c2)n1
IC50 [6]: 14.5 µM (active) | IC50 [7]: 6.15 µM (active) | IC50 [8]: > 100 µM (inactive) | EC50 [9]: > 104 µM (inactive)

COc1ccc(OC)c(C2CC(=O)N3CN(c4ccccc4F)CSC3=C2C#N)c1 (stereo not drawn)
IC50 [10]: 6.77 µM (active)

CC(C)Oc1cccc(C(=O)C2CCCN(Cc3cnn(C(C)C)c3)C2)c1 (stereo not drawn)
EC50 [11]: 0.068 µM (active) | EC50 [12]: < 0.1 µM (active) | EC50 [13]: > 195 µM (not active) | EC50 [14]: > 60 µM (not active) | EC50 [15]: 2.11 µM (active) | EC50 [16]: 0.039 µM (active)

CC(C)CCOc1ccc(/C=C2\CCn3c2nc2cc(C(=O)O)ccc2c3=O)cc1
IC50 [17]: 32.2 µM (active)

Nc1cc(O)nc(SCC(=O)Nc2ccccc2-c2ccccc2)n1
IC50 [18]: > 100 µM (active)

CN1CCN(C(=O)/C=C/c2cn(-c3ccccc3)nc2-c2ccc3c(c2)OCCO3)CC1
IC50 [19]: > 100 µM (active) | IC50 [20]: > 64.6 µM (inactive) | IC50 [21]: > 64.6 µM (inactive)

O=C(O)C1Nc2c(C(=O)N3CCCC3)cccc2C2C=CCC12 (stereo not drawn)
EC50 [22]: 4.95 µM (active)

COc1cccc(C2=CC(c3cccc(OC)c3OC)n3nnnc3N2)c1 (stereo not drawn)
EC50 [23]: > 49.7 µM (not active) | EC50 [24]: 26.1 µM (active) | EC50 [25]: 17 µM (active) | EC50 [26]: > 49.7 µM (not active) | EC50 [27]: 13.1 µM (active) | IC50 [28]: 155 µM (inactive)
